Common to all, as to assay: NCI tumour cell line growth inhibition, 48 h
In assay [1] the test system is A549.
The subject of assay [2] is U-251.
Assay [3] deals with SF-268.
Assay [4] deals with DU-145.
In assay [5] the test system is UO-31.
For assay [6], the system named is SW-620.
Assay [7] deals with HCC 2998.
In assay [8] the test system is MDA-N.
Assay [9] deals with KM-20L2.
The subject of assay [10] is SF-539.
Assay [11] concerns EKVX.
Assay [12] concerns OVCAR-4.
Assay [13] deals with CCRF-CEM.
The subject of assay [14] is IGROV-1.
The subject of assay [15] is SK-OV-3.
For assay [16], the system named is SN12C.
The subject of assay [17] is HL-60.
For assay [18], the system named is LOX IMVI.
The test system of assay [19] is SK-MEL-28.
For assay [20], the system named is RPMI-8226.

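Step 1: Grow cells in 96-well plates. Step 2: Expose to compound for 48 hours at 5 concentrations. Step 3: Interpolate endpoints linearly; if unreached, use highest concentration. The concentration for 50% growth inhibition is given as GI50.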 Active and inactive are the calls of the source. Cut-off read from the data, not from the text of the source: active = GI50 up to about 1.1 µM and inactive = higher.

As for `COc1ccc(/C=C2\CCC(Cc3ccccc3)(CN(C)C)C2=O)cc1` (stereo not given), the GI50 is 50.5 µM (inactive) in assay [1]; 61.7 µM (inactive) in [2]; 69.5 µM (inactive) in [3]; > 70.8 µM (inactive) in assay [4]; 54.3 µM (inactive) in [5]; 26.7 µM (inactive) in assay [6]. Besides, the GI50 in assay [7] was 24.4 µM (inactive); in [8], 38.3 µM (inactive); in assay [9], 23.4 µM (inactive); in [10], 57 µM (inactive); in assay [11], 42.5 µM (inactive); in assay [12] it was 56.8 µM (inactive). In addition, the GI50 is 27.9 µM (inactive) in assay [13]; > 100 µM (inactive) in assay [14]; > 100 µM (inactive) in [15]; 61.2 µM (inactive) in [16]; 19.7 µM (inactive) in assay [17]; 24.5 µM (inactive) in assay [18]. The GI50 is > 72.9 µM (inactive) in assay [19] and 22.2 µM (inactive) in [20].

Turning to `CCN(CC)CC[n+]1ccc2c(C)c3[nH]c4ccc(O)cc4c3c(C)c2c1`, the GI50 is 1.35 µM (inactive) in assay [1]; 1.33 µM (inactive) in [2]; 1.12 µM (active) in assay [3]; 2.4 µM (inactive) in assay [4]; 28 µM (inactive) in assay [5]; 5.57 µM (inactive) in assay [6]. The GI50 is 6.15 µM (inactive) in assay [7]; 8.89 µM (inactive) in [8]; 8.47 µM (inactive) in [9]; 3.89 µM (inactive) in assay [10]; 10.8 µM (inactive) in assay [11]; 3.85 µM (inactive) in assay [12]. The GI50 in [13] is 1.43 µM (inactive); in assay [14], 6.44 µM (inactive); in assay [15], 10.4 µM (inactive); in assay [16] it was 0.414 µM (active); in assay [17], 2.88 µM (inactive); in [18], 10.8 µM (inactive). Further, the GI50 in assay [19] is 7.13 µM (inactive); in assay [20], 7.31 µM (inactive).

The values above are taken from ChEMBL document CHEMBL1201862, “PubChem BioAssay data set” (2004).
